pEC50, pIC50: −log10 of the molar value. The source made the active and inactive calls.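 How the source made its calls: active means compounds giving half or more protection of infected cells from virus-caused growth loss, again on retest; inactive means the rest.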 Bounds are passed on as bounds.

Usually pEC50 stands for −log10 of the EC50, conventionally taken in molar units. The pIC50 is the negative decadic logarithm of the IC50, by convention in mol/L. A higher pIC50 goes with a small IC50.

This assay concerns CEM cells HIV-1 protection, formazan growth assay. In words: NCI AIDS Antiviral Assay. Conditions: for pIC50: measured here: growth of uninfected CEM cells. The gist of the method: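 Screen of anti-HIV-1 activity in human CEM cells using a formazan-based growth measurement at five drug concentrations. Hits with 50% or greater protection were repeated, and confirmation required reproducible complete protection.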

As to `CN(C)CC(/C(Cc1ccccc1)=N\NC(=O)C[n+]1ccccc1)c1ccccc1` (centres undefined), the pEC50 was less than 3.53 and the pIC50 is 3.86.
In the case of `CC1(C)CCc2cc3c(cc2O1)OC(C)(C)C1c2c(ccc4c2CCC(C)(C)O4)OC31` (centres undefined), the result was inactive.
As to `COc1ccc(NC(=O)C(/C=N\C(=S)NNC(C)=O)=C(\C)O)cc1`, the pEC50 was less than 3.70 and the pIC50 was less than 3.70.
In the case of `CCN(CC)CCNC(=O)c1nn(-c2ccc(Cl)cc2)c2c1CCc1cc(OC)ccc1-2`, the pEC50 was less than 4.04 and the pIC50 was 5.30.
With `FC(F)(F)c1nc(-c2ccccc2)oc1Sc1oc(-c2ccccc2)nc1C(F)(F)F`, the outcome was inactive.
On to `O=C(c1ccccc1)C1C(c2ccccc2)N1S(=O)(=O)c1ccccc1` (centres undefined), for which the pEC50 is less than 4.70 and the pIC50 is 5.52.
Regarding `CNc1ccc(/C=C2\C=Cc3ccccc32)cc1Br`, the pEC50 is less than 4.92 and the pIC50 is less than 4.92.
As for `CCOP(=O)(OCC)/C(C#N)=C/c1cccn1C`, the negative logarithm of the EC50 (pEC50) is 4.33 and the pIC50 is 3.27.
On the same counts, the results for `N#CC(C#N)=C1CCN2CCCc3cccc1c32` are less than 3.70 and 3.89.
On the same counts, the results for `CCc1cc(-c2cccc3ccccc23)c(C#N)c(=S)n1C1OC(CO)C(O)C(O)C1O` (centres undefined) are less than 3.70 and 4.21.
As to `Cc1c(C(=N)N)oc2ccccc12`, the outcome was inactive.
For `O=C1NC(Cc2ccc(O)c(O)c2)C(=O)N2CCCC12` (centres undefined), the pEC50 was less than 3.70 and the pIC50 was less than 3.70.
For the molecule `O=C(O)C[C@@H]1C(=O)OC2C3COC(=O)c4cc(O)c(O)c(O)c4-c4c(cc(O)c(O)c4O)C(=O)OC2C(OC(=O)c2cc(O)c(O)c4c2C1[C@H](O)C(=O)O4)C(OC(=O)c1cc(O)c(O)c(O)c1)O3` (some centres undefined), the negative-log EC50 (pEC50) is 5.58 and the negative logarithm of the IC50 (pIC50) is 4.89.
As to `C(/COc1cccnc1)=N\NC1=NCCN1`, the pEC50 was less than 3.08 and the pIC50 was 3.73.
On to `O=C1c2cccc3c([N+](=O)[O-])ccc(c23)C(=O)N1NCCO`, for which the result was inactive.
Regarding `O=S(=O)(/C=C/c1ccc(Cl)cc1Cl)Cc1ccccc1CS(=O)(=O)/C=C/c1ccc(Cl)cc1Cl`, the pEC50 was less than 4.90 and the pIC50 was less than 4.90.
Take `CN(C)c1ccc(NN=C2SC(=Nc3ccccc3)C(=Nc3ccccc3)S2)cc1`: the pEC50 is less than 3.70 and the pIC50 is 5.09.
On to `O=c1[nH]nc(-c2ccccc2)n1/N=C/c1cccc([N+](=O)[O-])c1`, for which the pEC50 is less than 3.70 and the negative logarithm of the IC50 (pIC50) is 4.61.
Regarding `C=C1SC(=Nc2ccc(Cl)cc2)N(c2nc(Cl)nc(Cl)n2)C12CCCCC2`, the pEC50 is less than 4.00 and the negative-log IC50 (pIC50) is less than 4.00.
`Cc1cc(N=Nc2ccc(C(=O)Nc3ccc4cc(S(=O)(=O)O)ccc4c3)cc2)c(N)c(N=Nc2ccc(N=Nc3ccc(O)c(C(=O)O)c3)cc2)c1N`: the negative-log EC50 (pEC50) is 4.83 and the pIC50 is less than 4.00.
Take `O=C1CCC(=O)c2sccc2N1`: the pEC50 was less than 2.86 and the negative-log IC50 (pIC50) is less than 2.86.
Take `N#C/C(=C\NC(=S)C(N)=S)C(=O)c1ccc2ccccc2c1`: the pEC50 is less than 3.70 and the pIC50 is 4.23.
In the case of `CCN(CC)c1c(-c2ccccc2)nnc2c3ccccc3nn12`, the pEC50 is less than 3.70 and the pIC50 was 4.62.
As for `OC1C2C=CCC1CCC2` (centres undefined), the result was inactive.
Consider `O=C1OC(c2ccccc2)(c2ccccc2)c2ccsc21`, for which the pEC50 is less than 3.70 and the negative logarithm of the IC50 (pIC50) is 4.16.
On to `O=C(CC(=O)n1nc(-c2ccccc2)c(N=Nc2ccc(Cl)cc2)c1-c1ccccc1)Nc1cccc(Cl)c1`, for which the pEC50 was less than 3.70 and the negative-log IC50 (pIC50) is 4.09.
In the same order, the values of `COc1ccc(C(CC(=O)C(C)(C)CN2CCCCC2)SCCS(=O)(=O)O)cc1` (centres undefined) are less than 3.70 and 4.88.
Take `C/C(=C\c1ccccc1)C(O)S(=O)(=O)O` (centres undefined): the outcome was inactive.
As to `O=C(/N=C(\c1ccc(F)cc1)c1ccsc1-n1cccc1)Nc1ccccc1`, the pEC50 was less than 3.70 and the pIC50 is 5.31.
Regarding `Cc1ccc(Nc2nc(C)c(C(/C=C/c3ccc4c(c3)OCO4)=N/Nc3ccc([N+](=O)[O-])cc3[N+](=O)[O-])s2)c([N+](=O)[O-])c1`, the pEC50 is less than 4.22 and the negative logarithm of the IC50 (pIC50) is 4.26.
In the case of `Cc1ccc(S(=O)(=O)N(C)c2ccccc2)cc1`, the pEC50 is less than 3.70 and the negative logarithm of the IC50 (pIC50) is 4.28.
Turning to `[Pd+2].[S-]c1ncccn1.[S-]c1ncccn1`, the pEC50 was less than 3.70 and the pIC50 is 6.97.
As for `CN(C(=O)C12C3C4C1C1C2C3C41I)C(C)(C)C` (centres undefined), the pEC50 was less than 3.60 and the pIC50 was less than 3.60.
Consider `Cn1nc(-c2ccccc2)c(C(=O)/C=C/c2ccccc2)c(N2CCCC2)c1=O`, for which the pEC50 is 4.90 and the negative logarithm of the IC50 (pIC50) is 4.28.
Consider `O=c1c(Cc2ccccc2)c(O)cc2n1CCC2`, for which the pEC50 is less than 3.83 and the negative-log IC50 (pIC50) was less than 3.83.
On to `COC(=O)C1CCCCCCCCCCC12SCCCS2` (centres undefined), for which the pEC50 is less than 3.70 and the pIC50 was less than 3.70.
On to `O=C1c2c(O)cccc2[C@H](O)[C@]23O[C@]12CC[C@]1(O)CCC[C@@H](O)[C@@H]13`, for which the pEC50 is less than 4.70 and the negative logarithm of the IC50 (pIC50) was 6.01.
With `Cc1cc(=O)c2c(o1)C(=O)c1occc1C2=O`, the result was inactive.
Take `COCCOCCOCCOCCOCCOCCOCCOCCOCCOCCOCCOCCOCCOCCOCCOCCOCC(=O)N(CCn1ccc(N)nc1=O)CCn1cnc2nc(N)[nH]c(=O)c21`: the pEC50 was less than 3.93 and the pIC50 is less than 3.93.
For `C#CCCCC(=C)C[C@@H]1OC(=O)[C@H](C)[C@@H]1O`, the pEC50 is less than 3.70 and the pIC50 was less than 3.70.
In the case of `COc1ccc(N2C(=O)C(=O)N(c3ccccc3[N+](=O)[O-])C2=S)cc1`, the pEC50 is less than 3.70 and the pIC50 was 4.56.
`CC(=O)NNC(=S)N/C=C/c1c(C)ccc([N+](=O)[O-])c1[N+](=O)[O-]`: the pEC50 was less than 3.70 and the negative-log IC50 (pIC50) is 4.38.
As for `Cc1ccc(Cc2n[nH]c(=O)n2N2C(=O)c3ccccc3C2=O)cc1`, the pEC50 was less than 3.70 and the negative logarithm of the IC50 (pIC50) was less than 3.70.
With `Nc1nnc(-c2ccccc2O)o1`, the pEC50 was less than 3.70 and the pIC50 is 3.96.
`O=C1CC(C(OCc2ccccc2)C(OCc2ccccc2)C(COCc2ccccc2)OCc2ccccc2)CC(=O)N1` (centres undefined): the pEC50 was less than 3.70 and the negative logarithm of the IC50 (pIC50) is less than 3.70.
Take `COc1cc(C2(C)OC(=O)c3ccccc32)c(OC)c2ccccc12` (centres undefined): the pEC50 was less than 4.35 and the pIC50 was 5.11.
For `O=C(Cn1c2ccc(Br)cc2c2nc3ccccc3nc21)NNC(=S)NC1CCCCC1`, the pEC50 was less than 3.70 and the pIC50 was 4.44.
On to `O=C(Nc1ccc(N=Nc2ccc(S(=O)(=O)O)cc2)cc1)c1ccc(N=Nc2c(S(=O)(=O)O)cc(O)c3c(NC(=O)c4ccccc4)cc(S(=O)(=O)O)cc23)cc1`, for which the outcome was active.
For `COc1cc2nncc(SCc3ccc(Cl)cc3Cl)c2cc1OC`, the pEC50 is less than 4.25 and the pIC50 is 4.28.
On to `CCOC(=O)C(=CNC(Cc1c[nH]c2ccccc12)C(=O)OC)C(=O)OCC` (centres undefined), for which the outcome was inactive.
For `CC(C)=CCC1=C(O)c2ccccc2C(=O)C1=O`, the result was inactive.
Consider `O=C(O)c1cscc1Cc1cccs1`, for which the pEC50 was less than 3.70 and the negative logarithm of the IC50 (pIC50) was less than 3.70.
As for `COc1ccc(/C=C\c2cc(OC)c(OC)c(OC)c2)cc1OP(=O)(O)O`, the pEC50 was less than 4.45 and the pIC50 is 7.55.
Consider `COc1ccc(CC(CO)NC(=O)OCc2ccccc2)cc1Oc1ccc(CC(CO)NC(=O)OCc2ccccc2)cc1` (centres undefined), for which the pEC50 was less than 3.70 and the negative logarithm of the IC50 (pIC50) is 5.00.
Consider `COc1cc(C2C(Cl)C(=O)N2NC(=O)c2ccc(N)cc2)ccc1O` (centres undefined), for which the pEC50 is less than 3.70 and the pIC50 was 4.27.
As for `CCN(CCCl)c1cc(C(=O)Nc2cc(NC(=O)c3cc(N(CC)CCCl)c([N+](=O)[O-])cc3[N+](=O)[O-])cc(C(=O)NCCN(C)C)c2)c([N+](=O)[O-])cc1[N+](=O)[O-]`, the pEC50 was less than 3.70 and the pIC50 is 3.90.
With `CCCCCCC(O)CCCCCCCCCCC(=O)OCC(COC(=O)CCCCCCCCCCC(O)CCCCCC)OC(=O)CCCCCCCCCCC(O)CCCCCC` (centres undefined), the pEC50 is less than 4.00 and the pIC50 was less than 4.00.
In the case of `O=C(O)c1cc([N+](=O)[O-])c2c(c1)P(=O)(O)c1cc(C(=O)O)cc([N+](=O)[O-])c1O2`, the pEC50 is less than 3.70 and the pIC50 was less than 3.70.
For the molecule `O=c1[nH]c(=O)c2c([nH]1)[nH]c1ccc(Br)cc12`, the pEC50 is less than 3.70 and the pIC50 was 4.46.
In the same order, the values of `COc1ccc2nc3cc([N+](=O)[O-])ccc3c(NCCCCCN(C)C)c2c1` are less than 5.70 and 6.86.
`COC(=O)c1cc(C)ccc1CC(Cc1cccc(C)c1)C(=O)OC` (centres undefined): the pEC50 is less than 3.70 and the negative-log IC50 (pIC50) is less than 3.70.
Turning to `O=C(NNc1ccccc1)NNc1ccccc1` (tested in a mixture with another compound), the pEC50 is less than 3.70 and the negative logarithm of the IC50 (pIC50) is 4.50.
Turning to `CCSc1nc2cccc([N+](=O)[O-])c2n1CC`, the outcome was inactive.
Regarding `COCCOC(C)C(=O)C(O)S(=O)(=O)O` (centres undefined), the pEC50 was less than 3.70 and the negative-log IC50 (pIC50) was 3.73.
On to `CC1(C)OC(=O)C(C#N)=C1/C=C\c1ccco1`, for which the pEC50 was less than 2.96 and the pIC50 was less than 2.96.
With `CCC[CH2][Sn]([CH2]CCC)([O]C(=O)C(OC(C)=O)c1ccccc1)[O]C(=O)C(OC(C)=O)c1ccccc1` (centres undefined), the pEC50 was less than 4.94 and the pIC50 is 6.72.
With `C=C[C@@H](OCOCC[Si](C)(C)C)[C@@H](CC)OC(CCCOC(=O)C(C)(C)C)OC` (some centres undefined), the pEC50 was less than 3.70 and the negative logarithm of the IC50 (pIC50) was less than 3.70.
`N=[N+]=CC(=O)OCC(N)C(=O)O` (centres undefined): the pEC50 is less than 3.70 and the negative-log IC50 (pIC50) is 5.54.
In the same order, the values of `COc1cc(OC)c(-c2cc(=O)c3c(OC)c(OC)c(OC)c(OC)c3o2)cc1OC` are less than 3.70 and 4.71.
For `COc1cccc2c1CCc1ccccc1CC2=O`, the pEC50 was less than 4.27 and the pIC50 is less than 4.27.
